Test results: the supplement of paper PMC11208160

Experiment: recombinant UMI read abundance after kanamycin selection (control-corrected) (log10(CPM+1)); higher = more efficient recombination; extreme values may be limits of the assay; sequences stand for … in AGTGCAGAGAAAATCGGCCAGTTTTCTCTGCCTGCAGTCCGCATGCCGTGGGACCCCTTGGGTTCTAACCTGTTGCCTAGATTTATGCAGCGGACTGCCTTTCTCCCAAAGTGATAAACCGG…AGGTTGGTTTCACT; site = the 11-nt donor
Protocol: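 Pooled E. coli donor-specificity screen for the IS621 bridge recombinase. Each library member carries a reprogrammed 11-nt donor and a full-length LE bridge RNA expressed in cis from the natural promoter, with a paired donor-binding loop (8-nt LDG + 4-nt RDG) and a target-binding loop fixed to T5. It is co-electroporated with a T5 target plasmid; recombinase is induced with 0.07 mM IPTG and recombinants are selected on kanamycin. UMIs are counted as CPM, averaged over two biological replicates and corrected by the unselected control. Molecule = full bridge RNA written as DNA, built from the T5 scaffold: LDG = donor specificity nt 1-8, RDG = reverse complement of nt 8-11.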
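Further: IS621 bridge recombinase in Escherichia coli cells against a fixed T5 target plasmid.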

Sequence	recombinant UMI read abundance (log10)
AATAAGACATGGACCGGTTTTCCCGGTAATCCGTATTTGAA (site AATAAGACTTT)	1.86
AATAGAACATGGACCGGTTTTCCCGGTAATCCGTATTTGAG (site AATAGAACTCT)	2
AATAGAACATGGACCGGTTTTCCCGGTAATCCGTATTTGAG (site ACTAGAACTCT)	1.6
AATAGAACATGGACCGGTTTTCCCGGTAATCCGTATTTGAG (site AGTAGAACTCT)	0.412
AATAGAACATGGACCGGTTTTCCCGGTAATCCGTATTTGAG (site ATTAGAACTCT)	0.329
AATAGGACATGGACCGGTTTTCCCGGTAATCCGTATTTGCG (site AATAGGACTCG)	1.97
AATAGTGCATGGACCGGTTTTCCCGGTAATCCGTATTTGGT (site AATAGTGCTAC)	1.23
AATAGTGCATGGACCGGTTTTCCCGGTAATCCGTATTTGGT (site ACTAGTGCTAC)	0.687
AATAGTGCATGGACCGGTTTTCCCGGTAATCCGTATTTGGT (site AGTAGTGCTAC)	0.602
AATAGTGCATGGACCGGTTTTCCCGGTAATCCGTATTTGGT (site ATTAGTGCTAC)	0.53
AATATAACATGGACCGGTTTTCCCGGTAATCCGTATTTGCT (site AATATAACTAG)	1.99
AATATAACATGGACCGGTTTTCCCGGTAATCCGTATTTGCT (site AATCTAACTAG)	0.615
AATATAACATGGACCGGTTTTCCCGGTAATCCGTATTTGCT (site AATGTAACTAG)	1.47
AATATAACATGGACCGGTTTTCCCGGTAATCCGTATTTGCT (site AATTTAACTAG)	0.0427
AATCATGCATGGACCGGTTTTCCCGGTAATCCGTATTTGGA (site AATAATGCTTC)	0.666
AATCATGCATGGACCGGTTTTCCCGGTAATCCGTATTTGGA (site AATCATGCTTC)	0.584
AATCATGCATGGACCGGTTTTCCCGGTAATCCGTATTTGGA (site AATGATGCTTC)	0.351
AATCATGCATGGACCGGTTTTCCCGGTAATCCGTATTTGGA (site AATTATGCTTC)	0.636
AATCCATCATGGACCGGTTTTCCCGGTAATCCGTATTTGTA (site AATCCATCTTA)	1.06
AATCTCACATGGACCGGTTTTCCCGGTAATCCGTATTTGGA (site AATCTCACTTC)	0.341
AATCTGGCATGGACCGGTTTTCCCGGTAATCCGTATTTGTA (site AATCTGGCTTA)	0.472
AATGAGACATGGACCGGTTTTCCCGGTAATCCGTATTTGGT (site AATGAGACTAC)	1.58

Sequence	recombinant UMI read abundance (log10)
AATGAGACATGGACCGGTTTTCCCGGTAATCCGTATTTGGT (site ACTGAGACTAC)	0.724
AATGAGACATGGACCGGTTTTCCCGGTAATCCGTATTTGGT (site AGTGAGACTAC)	1.41
AATGAGACATGGACCGGTTTTCCCGGTAATCCGTATTTGGT (site ATTGAGACTAC)	0.678
AATGATGCATGGACCGGTTTTCCCGGTAATCCGTATTTGGA (site AATAATGCTTC)	1.08
AATGATGCATGGACCGGTTTTCCCGGTAATCCGTATTTGGA (site AATCATGCTTC)	1.01
AATGATGCATGGACCGGTTTTCCCGGTAATCCGTATTTGGA (site AATGATGCTTC)	1.06
AATGATGCATGGACCGGTTTTCCCGGTAATCCGTATTTGGA (site AATTATGCTTC)	0.561
AATGCAACATGGACCGGTTTTCCCGGTAATCCGTATTTGCT (site AATGAAACTAG)	0
AATGCAACATGGACCGGTTTTCCCGGTAATCCGTATTTGCT (site AATGCAACTAG)	0.00461
AATGCAACATGGACCGGTTTTCCCGGTAATCCGTATTTGCT (site AATGGAACTAG)	0
AATGCAACATGGACCGGTTTTCCCGGTAATCCGTATTTGCT (site AATGTAACTAG)	0
AATGCAGCATGGACCGGTTTTCCCGGTAATCCGTATTTGGG (site AATGCAGCTCC)	0.00829
AATGCGTCATGGACCGGTTTTCCCGGTAATCCGTATTTGAC (site AATGAGTCTGT)	0
AATGCGTCATGGACCGGTTTTCCCGGTAATCCGTATTTGAC (site AATGCGTCTGT)	2.03
AATGCGTCATGGACCGGTTTTCCCGGTAATCCGTATTTGAC (site AATGGGTCTGT)	0
AATGCGTCATGGACCGGTTTTCCCGGTAATCCGTATTTGAC (site AATGTGTCTGT)	0.269
AATGGGTCATGGACCGGTTTTCCCGGTAATCCGTATTTGAC (site AATGAGTCTGT)	0.146
AATGGGTCATGGACCGGTTTTCCCGGTAATCCGTATTTGAC (site AATGCGTCTGT)	0.826
AATGGGTCATGGACCGGTTTTCCCGGTAATCCGTATTTGAC (site AATGGGTCTGT)	2.68
AATGGGTCATGGACCGGTTTTCCCGGTAATCCGTATTTGAC (site AATGTGTCTGT)	0
AATGGTGCATGGACCGGTTTTCCCGGTAATCCGTATTTGGT (site AATGGTGCTAC)	1.04
AATGTAACATGGACCGGTTTTCCCGGTAATCCGTATTTGCG (site AATGTAACTAG)	0

Sequence	recombinant UMI read abundance (log10)
AATGTAACATGGACCGGTTTTCCCGGTAATCCGTATTTGCG (site AATGTAACTCG)	1.48
AATGTAACATGGACCGGTTTTCCCGGTAATCCGTATTTGCG (site AATGTAACTGG)	0
AATGTAACATGGACCGGTTTTCCCGGTAATCCGTATTTGCG (site AATGTAACTTG)	0.00267
AATGTAACATGGACCGGTTTTCCCGGTAATCCGTATTTGTT (site AATGTAACTAA)	0.321
AATGTAACATGGACCGGTTTTCCCGGTAATCCGTATTTGTT (site AATGTAACTAC)	0.00716
AATGTAACATGGACCGGTTTTCCCGGTAATCCGTATTTGTT (site AATGTAACTAG)	0.466
AATGTAACATGGACCGGTTTTCCCGGTAATCCGTATTTGTT (site AATGTAACTAT)	0.0338
AATGTACCATGGACCGGTTTTCCCGGTAATCCGTATTTGCT (site AATGTAACTAG)	0
AATGTACCATGGACCGGTTTTCCCGGTAATCCGTATTTGCT (site AATGTACCTAG)	0
AATGTACCATGGACCGGTTTTCCCGGTAATCCGTATTTGCT (site AATGTAGCTAG)	0.00499
AATGTACCATGGACCGGTTTTCCCGGTAATCCGTATTTGCT (site AATGTATCTAG)	0.926
AATGTGTCATGGACCGGTTTTCCCGGTAATCCGTATTTGAG (site AATGTGTCTAT)	1.43
AATGTGTCATGGACCGGTTTTCCCGGTAATCCGTATTTGAG (site AATGTGTCTCT)	1.82
AATGTGTCATGGACCGGTTTTCCCGGTAATCCGTATTTGAG (site AATGTGTCTGT)	0.801
AATGTGTCATGGACCGGTTTTCCCGGTAATCCGTATTTGAG (site AATGTGTCTTT)	0.832
AATGTGTCATGGACCGGTTTTCCCGGTAATCCGTATTTGAT (site AATGTGTCTAT)	1.66
AATGTGTCATGGACCGGTTTTCCCGGTAATCCGTATTTGAT (site AATGTGTCTCT)	0.003
AATGTGTCATGGACCGGTTTTCCCGGTAATCCGTATTTGAT (site AATGTGTCTGT)	0
AATGTGTCATGGACCGGTTTTCCCGGTAATCCGTATTTGAT (site AATGTGTCTTT)	0.0089
AATTAGCCATGGACCGGTTTTCCCGGTAATCCGTATTTGAG (site AATTAGCCTCT)	0.017
AATTATCCATGGACCGGTTTTCCCGGTAATCCGTATTTGGA (site AATTATACTTC)	0.126
